{"source": "patent US12691109B2", "about": "“Bifunctional aggregation-induced emission luminogen for monitoring and killing of multidrug-resistant bacteria” (The Hong Kong University of Science and Technology, priority 2018, dated 2026)", "type_in_all_cases": "cell-based", "key": {"S. aureus": {"system": "S. aureus", "assay": "Light-enhanced bacteria killing, plate counting method", "procedure": "(§1) FIGS. 15C-F are graphs depicting bacteria survival rates for bacteria that were incubated with TriPE-NT (10 μM) for 10 min, the bacteria suspensions (50 μL) were plated on agar plates and treated by white-light illumination (4 mW cm^−2) for 0, 2 and 30 min respectively. FIG. 15C is a graph plotting survival rate versus time of E. coli and MDR E. coli. FIG. 15D is a graph plotting survival rate versus time of K. pneumoniae and MDR K. pneumoniae. FIG. 15E is a graph plotting survival rate versus time of S. epidermidis and MDR S. epidermidis. FIG. 15F is a graph plotting survival rate versus time of S. aureus and MDR S. aureus.\n(§2) The bacteria killing effect of TriPE-NT was evaluated on both wild and clinically isolated MDR bacteria by a traditional plate counting method. First, E. coli and S. epidermidis, as the representative of Gram-negative (G−) and Gram-positive (G+) bacteria, were used to determine the effective bactericidal concentration and illumination time. The bacteria were incubated with TriPE-NT (0, 5, 10 μM) for 0 and 10 min, the bacteria suspensions (50 μL) were plated on agar plates and treated by white-light illumination (4 mW cm^−2) for 2, 10 and 30 min respectively (FIGS. 16A-B). […] Thus, 10 μM TriPE-NT and light irradiation for 2 min or 30 min were set as experimental conditions in the following experiments."}, "MDR K. pneumoniae [1]": {"system": "MDR K. pneumoniae", "assay": "Light-enhanced bacteria killing, plate counting method", "procedure": "as §1, §2"}, "MDR S. aureus": {"system": "MDR S. aureus", "assay": "Light-enhanced bacteria killing, plate counting method", "procedure": "as §1, §2"}, "K. pneumoniae [2]": {"system": "K. pneumoniae", "assay": "Light-enhanced bacteria killing, plate counting method", "procedure": "as §1, §2"}, "MDR S. epidermidis": {"system": "MDR S. epidermidis", "assay": "Light-enhanced bacteria killing, plate counting method", "details": "in darkness, 10 μM TriPE-NT", "procedure": "as §1, §2"}, "MDR E. coli [3]": {"system": "MDR E. coli", "assay": "Light-enhanced bacteria killing, plate counting method", "procedure": "as §1, §2"}, "E. coli": {"system": "E. coli", "assay": "Bacteria staining with TriPE-NT and PI, CLSM", "details": "10 min", "procedure": "(§3) TriPE-NT: Ex, 405 nm, Em, 500-560 nm; PI: Ex, 514 nm, Em, 600-700 nm.\n(§4) FIG. 21B is a graph plotting stained percentages for E. coli, MDR E. coli, K. pneumoniae, MDR K. pneumoniae, S. epidermidis, MDR S. epidermidis, S. aureus, and MDR S. aureus.\n(§5) FIG. 21C is a graph plotting percentage of dead bacteria stained by propidium iodine (PI) after the bacteria were incubated with 10 μM of TriPE-NT or PI for 10 min.\n(§6) To indicate the status of the bacteria after TriPE-NT treatment, the bacteria was incubated with commercial dead bacteria-staining fluorescent reagent propidium iodide (PI) and TriPE-NT at the same time. Thanks to the AIE characteristics and water solubility of TriPE-NT, there was almost no background fluorescence in the imaging field. E. coli and S. epidermidis, which emitted bright orange (TriPE-NT) or red (PI) fluorescence, are clearly visualized under confocal laser scanning microscope (CLSM) (FIG. 21A-C, 22-23). […] In comparison, relatively low percentage of Gram-negative bacteria were stained by TriPE-NT (e.g., 88.1±9.8% E. coli, 84.3±12.7% MDR E. coli, 47.9±7.7% K. pneumoniae and 35.8±4.9% MDR K. pneumoniae) (FIG. 21B, FIG. 22). […] By contrast, relatively low percentages of E. coli (22.1±12.2% E. coli) were co-stained by both TriPE-NT and PI (FIGS. 21A, C), which is also similar to other Gram-negative bacteria (15.3±3.7%, MDR E. coli, 8.8±3.2%, K. pneumoniae and 6.4±2.6% MDR K. pneumoniae) (FIGS. 21A & C, 22). The reason for this difference possibly is ascribed to the extra membrane of Gram-negative bacteria which is absent in Gram-positive bacteria. These observations also illustrated that both Gram-negative bacteria and Gram-positive bacteria are vulnerable to TriPE-NT treatment, the possible reason is that these bacteria with negatively charged membranes, could anchor, uptake, and aggregate the positively charged probe, which restricts the intramolecular motion of the probe and causes their fluorescence emission."}, "S. epidermidis": {"system": "S. epidermidis", "assay": "Bacteria staining with TriPE-NT and PI, CLSM", "details": "10 min", "procedure": "as §3, §4, §5, §6"}, "MDR K. pneumoniae [4]": {"system": "MDR K. pneumoniae", "assay": "Bacteria staining with TriPE-NT and PI, CLSM", "details": "10 min", "procedure": "as §4, §5\n(§7) TriPE-NT: Ex=405 nm, Em=500-560 nm; PI: Ex=514, Em=600-700. The scale bar is equal to 5 μm.\nas §6"}, "K. pneumoniae [5]": {"system": "K. pneumoniae", "assay": "Bacteria staining with TriPE-NT and PI, CLSM", "details": "10 min", "procedure": "as §4, §5, §7, §6"}, "MDR E. coli [6]": {"system": "MDR E. coli", "assay": "Bacteria staining with TriPE-NT and PI, CLSM", "details": "10 min", "procedure": "as §4, §5, §7, §6"}, "[7]": {"system": "human umbilical vein endothelial cells (HUVECs)", "assay": "Cytotoxicity, CCK-8 kit", "procedure": "(§8) FIGS. 18A-B are graphs depicting cell viability of human amniotic fluid stem cells (HAFs) and human umbilical vein endothelial cells (HUVECs) after incubation with TriPE-NT at different concentrations of 0, 2, 5, 10 and 20 μM under dark conditions and upon white-light illumination (4 mW cm^−2) for 2 and 30 min.\n(§9) Cytotoxicity of the TriPE-NT was tested because a good antibacterial drug should have the ability to kill only bacteria and have no toxicity to human or animal cells. The biocompatibility of TriPE-NT was evaluated by CCK-8 kit."}, "[8]": {"system": "human skin fibroblast cells (HAFs)", "assay": "Cytotoxicity, CCK-8 kit", "procedure": "as §8, §9"}, "[9]": {"details": "10 μM, white light 4 mW cm^−2, 30 min"}, "[10]": {"details": "2, 5, 10 and 20 RM, absence of white light irradiation"}, "[11]": {"details": "white light 4 mW cm^−2, 2 and 30 min"}}, "data": [{"smiles": "COc1ccc(C(=Cc2ccc(-c3ccc4c5c(cccc35)C(=O)N(CCCCn3c[n+](Cc5ccc(F)cc5F)cn3)C4=O)cc2)c2ccc(OC)cc2)cc1", "note": "[TriPE-NT]", "values": [{"measurement": "S. aureus killed", "setting": "S. aureus; [9]", "value": "> 98", "unit": "%"}, {"measurement": "survival rate of S. aureus", "setting": "S. aureus; in darkness, 10 μM TriPE-NT", "value": "~8.9±1.1", "unit": "%"}, {"measurement": "MDR K. pneumoniae killed", "setting": "MDR K. pneumoniae [1]; [9]", "value": "> 61", "unit": "%"}, {"measurement": "survival rate of MDR K. pneumoniae", "setting": "MDR K. pneumoniae [1]; in darkness, 10 μM TriPE-NT", "value": "~74.4±3.7", "unit": "%"}, {"measurement": "MDR S. aureus killed", "setting": "MDR S. aureus; [9]", "value": "> 97", "unit": "%"}, {"measurement": "survival rate of MDR S. aureus", "setting": "MDR S. aureus; in darkness, 10 μM TriPE-NT", "value": "~22.4±1.9", "unit": "%"}, {"measurement": "K. pneumoniae killed", "setting": "K. pneumoniae [2]; [9]", "value": "> 90", "unit": "%"}, {"measurement": "survival rate of K. pneumoniae", "setting": "K. pneumoniae [2]; in darkness, 10 μM TriPE-NT", "value": "~59.9±6.5", "unit": "%"}, {"measurement": "killing of MDR S. epidermidis", "setting": "MDR S. epidermidis", "value": "killed nearly all"}, {"measurement": "MDR E. coli killed", "setting": "MDR E. coli [3]; [9]", "value": "more than 96%"}, {"measurement": "survival rate of MDR E. coli", "setting": "MDR E. coli [3]; in darkness, 10 μM TriPE-NT", "value": "~14.1±1.4", "unit": "%"}, {"measurement": "percentage of E. coli co-stained by TriPE-NT and PI (dead bacteria)", "setting": "E. coli; 10 μM TriPE-NT and PI", "value": "22.1±12.2", "unit": "%"}, {"measurement": "percentage of E. coli stained by TriPE-NT", "setting": "E. coli; 10 μM", "value": "88.1±9.8", "unit": "%"}, {"measurement": "percentage of S. epidermidis co-stained by TriPE-NT and PI (dead bacteria)", "setting": "S. epidermidis; 10 μM TriPE-NT and PI", "value": "80.9±15.8", "unit": "%"}, {"measurement": "percentage of S. epidermidis stained by TriPE-NT", "setting": "S. epidermidis; 10 μM", "value": "96.2±5.6", "unit": "%"}, {"measurement": "percentage of MDR K. pneumoniae co-stained by TriPE-NT and PI (dead bacteria)", "setting": "MDR K. pneumoniae [4]; 10 μM TriPE-NT and PI", "value": "6.4±2.6", "unit": "%"}, {"measurement": "percentage of MDR K. pneumoniae stained by TriPE-NT", "setting": "MDR K. pneumoniae [4]; 10 μM", "value": "35.8±4.9", "unit": "%"}, {"measurement": "percentage of K. pneumoniae co-stained by TriPE-NT and PI (dead bacteria)", "setting": "K. pneumoniae [5]; 10 μM TriPE-NT and PI", "value": "8.8±3.2", "unit": "%"}, {"measurement": "percentage of K. pneumoniae stained by TriPE-NT", "setting": "K. pneumoniae [5]; 10 μM", "value": "47.9±7.7", "unit": "%"}, {"measurement": "percentage of MDR E. coli co-stained by TriPE-NT and PI (dead bacteria)", "setting": "MDR E. coli [6]; 10 μM TriPE-NT and PI", "value": "15.3±3.7", "unit": "%"}, {"measurement": "percentage of MDR E. coli stained by TriPE-NT", "setting": "MDR E. coli [6]; 10 μM", "value": "84.3±12.7", "unit": "%"}, {"measurement": "cell viability of HUVECs", "setting": "[7]; [10]", "value": "not significantly changed"}, {"measurement": "cytotoxicity to HUVECs with increase of irradiation time", "setting": "[7]; [11]", "value": "no obvious cytotoxicity"}, {"measurement": "cell viability of HAFs", "setting": "[8]; [10]", "value": "not significantly changed"}, {"measurement": "cytotoxicity to HAFs with increase of irradiation time", "setting": "[8]; [11]", "value": "no obvious cytotoxicity"}]}]}
